Laboratory results published in ChEMBL document CHEMBL5724914, “Linking interpersonal differences in gut microbiota composition and drug biotransformation activity” (2024).

Conditions: human gut metagenome, 24 h, 2 µM
Also: call rule not given here.

SMILES	Bacterial Biotransformation
CCC1(c2ccc(N)cc2)CCC(=O)NC1=O (centres undefined) [AMINOGLUTETHIMIDE]	Compound NOT metabolized
CN(C)CCc1c[nH]c2ccc(Cn3cncn3)cc12.O=C(O)c1ccccc1 [RIZATRIPTAN BENZOATE]	Compound NOT metabolized
COc1ccccc1N1CCN(CC(O)COc2cccc3ccccc23)CC1 (centres undefined) [NAFTOPIDIL]	Compound NOT metabolized

Assay: (§1) The drug is tested on Z-001 corresponding to mouse gut metagenome with ENA study accession number: PRJEB37062 and ENA sample accession number: ERS12561801 for biotransformation under anaerobic condition. The drug concentrations were measured over 9 timepoints collected between 0 and 24 hours of incubation by liquid-chromatography-coupled mass spectrometry (LC–MS)
Conditions: 2 µM

SMILES	Bacterial Biotransformation
CCC1(c2ccc(N)cc2)CCC(=O)NC1=O (centres undefined) [AMINOGLUTETHIMIDE]	Compound NOT metabolized
CN(C)CCc1c[nH]c2ccc(Cn3cncn3)cc12.O=C(O)c1ccccc1 [RIZATRIPTAN BENZOATE]	Compound NOT metabolized
COc1ccccc1N1CCN(CC(O)COc2cccc3ccccc23)CC1 (centres undefined) [NAFTOPIDIL]	Compound NOT metabolized

Conditions: human gut metagenome, 24 h, 2 µM
Remark: another data set of the same source

SMILES	Bacterial Biotransformation
CCC1(c2ccc(N)cc2)CCC(=O)NC1=O (centres undefined) [AMINOGLUTETHIMIDE]	Compound NOT metabolized
CN(C)CCc1c[nH]c2ccc(Cn3cncn3)cc12.O=C(O)c1ccccc1 [RIZATRIPTAN BENZOATE]	Compound NOT metabolized
COc1ccccc1N1CCN(CC(O)COc2cccc3ccccc23)CC1 (centres undefined) [NAFTOPIDIL]	Compound NOT metabolized

Conditions: human gut metagenome, 24 h, 2 µM
Remark: another data set of the same source

SMILES	Bacterial Biotransformation
CCC1(c2ccc(N)cc2)CCC(=O)NC1=O (centres undefined) [AMINOGLUTETHIMIDE]	Compound NOT metabolized
CN(C)CCc1c[nH]c2ccc(Cn3cncn3)cc12.O=C(O)c1ccccc1 [RIZATRIPTAN BENZOATE]	Compound NOT metabolized
COc1ccccc1N1CCN(CC(O)COc2cccc3ccccc23)CC1 (centres undefined) [NAFTOPIDIL]	Compound NOT metabolized

Conditions: human gut metagenome, 24 h, 2 µM
Remark: another data set of the same source

SMILES	Bacterial Biotransformation
CCC1(c2ccc(N)cc2)CCC(=O)NC1=O (centres undefined) [AMINOGLUTETHIMIDE]	Compound NOT metabolized
CN(C)CCc1c[nH]c2ccc(Cn3cncn3)cc12.O=C(O)c1ccccc1 [RIZATRIPTAN BENZOATE]	Compound NOT metabolized
COc1ccccc1N1CCN(CC(O)COc2cccc3ccccc23)CC1 (centres undefined) [NAFTOPIDIL]	Compound NOT metabolized

Conditions: human gut metagenome, 24 h, 2 µM
Remark: another data set of the same source

SMILES	Bacterial Biotransformation
CCC1(c2ccc(N)cc2)CCC(=O)NC1=O (centres undefined) [AMINOGLUTETHIMIDE]	Compound NOT metabolized
COc1ccccc1N1CCN(CC(O)COc2cccc3ccccc23)CC1 (centres undefined) [NAFTOPIDIL]	Compound NOT metabolized

Conditions: human gut metagenome, 24 h, 2 µM
Remark: another data set of the same source

SMILES	Bacterial Biotransformation
CCC1(c2ccc(N)cc2)CCC(=O)NC1=O (centres undefined) [AMINOGLUTETHIMIDE]	Compound NOT metabolized
CN(C)CCc1c[nH]c2ccc(Cn3cncn3)cc12.O=C(O)c1ccccc1 [RIZATRIPTAN BENZOATE]	Compound NOT metabolized
COc1ccccc1N1CCN(CC(O)COc2cccc3ccccc23)CC1 (centres undefined) [NAFTOPIDIL]	Compound NOT metabolized

Assay: as §1, with “Z-028” for “Z-001”, “ERS12561827” for “ERS12561801”
Conditions: 2 µM

SMILES	Bacterial Biotransformation
CN(C)CCc1c[nH]c2ccc(Cn3cncn3)cc12.O=C(O)c1ccccc1 [RIZATRIPTAN BENZOATE]	Compound NOT metabolized
COc1ccccc1N1CCN(CC(O)COc2cccc3ccccc23)CC1 (centres undefined) [NAFTOPIDIL]	Compound metabolized

Assay: as §1, with “Z-013” for “Z-001”, “rabbit” for “mouse”, “ERS12561813” for “ERS12561801”
Conditions: 2 µM

SMILES	Bacterial Biotransformation
CCC1(c2ccc(N)cc2)CCC(=O)NC1=O (centres undefined) [AMINOGLUTETHIMIDE]	Compound NOT metabolized
CN(C)CCc1c[nH]c2ccc(Cn3cncn3)cc12.O=C(O)c1ccccc1 [RIZATRIPTAN BENZOATE]	Compound NOT metabolized
COc1ccccc1N1CCN(CC(O)COc2cccc3ccccc23)CC1 (centres undefined) [NAFTOPIDIL]	Compound NOT metabolized

Assay: as §1, with “Z-007” for “Z-001”, “rat” for “mouse”, “ERS12561807” for “ERS12561801”
Conditions: 2 µM

SMILES	Bacterial Biotransformation
CCC1(c2ccc(N)cc2)CCC(=O)NC1=O (centres undefined) [AMINOGLUTETHIMIDE]	Compound NOT metabolized
CN(C)CCc1c[nH]c2ccc(Cn3cncn3)cc12.O=C(O)c1ccccc1 [RIZATRIPTAN BENZOATE]	Compound NOT metabolized
COc1ccccc1N1CCN(CC(O)COc2cccc3ccccc23)CC1 (centres undefined) [NAFTOPIDIL]	Compound NOT metabolized

Assay: as §1, with “Z-024” for “Z-001”, “pig” for “mouse”, “ERS12561823” for “ERS12561801”
Conditions: 2 µM

SMILES	Bacterial Biotransformation
CCC1(c2ccc(N)cc2)CCC(=O)NC1=O (centres undefined) [AMINOGLUTETHIMIDE]	Compound metabolized
CN(C)CCc1c[nH]c2ccc(Cn3cncn3)cc12.O=C(O)c1ccccc1 [RIZATRIPTAN BENZOATE]	Compound NOT metabolized
COc1ccccc1N1CCN(CC(O)COc2cccc3ccccc23)CC1 (centres undefined) [NAFTOPIDIL]	Compound metabolized

Conditions: human gut metagenome, 24 h, 2 µM
Remark: another data set of the same source

SMILES	Bacterial Biotransformation
CCC1(c2ccc(N)cc2)CCC(=O)NC1=O (centres undefined) [AMINOGLUTETHIMIDE]	Compound NOT metabolized
CN(C)CCc1c[nH]c2ccc(Cn3cncn3)cc12.O=C(O)c1ccccc1 [RIZATRIPTAN BENZOATE]	Compound NOT metabolized
COc1ccccc1N1CCN(CC(O)COc2cccc3ccccc23)CC1 (centres undefined) [NAFTOPIDIL]	Compound NOT metabolized

Assay: as §1, with “Z-009” for “Z-001”, “pig” for “mouse”, “ERS12561809” for “ERS12561801”
Conditions: 2 µM

SMILES	Bacterial Biotransformation
CCC1(c2ccc(N)cc2)CCC(=O)NC1=O (centres undefined) [AMINOGLUTETHIMIDE]	Compound metabolized
CN(C)CCc1c[nH]c2ccc(Cn3cncn3)cc12.O=C(O)c1ccccc1 [RIZATRIPTAN BENZOATE]	Compound NOT metabolized
COc1ccccc1N1CCN(CC(O)COc2cccc3ccccc23)CC1 (centres undefined) [NAFTOPIDIL]	Compound NOT metabolized

Assay: as §1, with “WLS-082” for “Z-001”, “human” for “mouse”, “ERS12561751” for “ERS12561801”
Conditions: 2 µM

SMILES	Bacterial Biotransformation
CCC1(c2ccc(N)cc2)CCC(=O)NC1=O (centres undefined) [AMINOGLUTETHIMIDE]	Compound NOT metabolized
COc1ccccc1N1CCN(CC(O)COc2cccc3ccccc23)CC1 (centres undefined) [NAFTOPIDIL]	Compound NOT metabolized

Conditions: human gut metagenome, 24 h, 2 µM
Remark: another data set of the same source

SMILES	Bacterial Biotransformation
CCC1(c2ccc(N)cc2)CCC(=O)NC1=O (centres undefined) [AMINOGLUTETHIMIDE]	Compound NOT metabolized
CN(C)CCc1c[nH]c2ccc(Cn3cncn3)cc12.O=C(O)c1ccccc1 [RIZATRIPTAN BENZOATE]	Compound NOT metabolized
COc1ccccc1N1CCN(CC(O)COc2cccc3ccccc23)CC1 (centres undefined) [NAFTOPIDIL]	Compound NOT metabolized

Conditions: human gut metagenome, 24 h, 2 µM
Remark: another data set of the same source

SMILES	Bacterial Biotransformation
CCC1(c2ccc(N)cc2)CCC(=O)NC1=O (centres undefined) [AMINOGLUTETHIMIDE]	Compound NOT metabolized
CN(C)CCc1c[nH]c2ccc(Cn3cncn3)cc12.O=C(O)c1ccccc1 [RIZATRIPTAN BENZOATE]	Compound NOT metabolized
COc1ccccc1N1CCN(CC(O)COc2cccc3ccccc23)CC1 (centres undefined) [NAFTOPIDIL]	Compound NOT metabolized

Assay: as §1, with “WLS-006” for “Z-001”, “human” for “mouse”, “ERS12561741” for “ERS12561801”
Conditions: 2 µM

SMILES	Bacterial Biotransformation
CCC1(c2ccc(N)cc2)CCC(=O)NC1=O (centres undefined) [AMINOGLUTETHIMIDE]	Compound NOT metabolized
CN(C)CCc1c[nH]c2ccc(Cn3cncn3)cc12.O=C(O)c1ccccc1 [RIZATRIPTAN BENZOATE]	Compound NOT metabolized
COc1ccccc1N1CCN(CC(O)COc2cccc3ccccc23)CC1 (centres undefined) [NAFTOPIDIL]	Compound NOT metabolized

Conditions: human gut metagenome, 24 h, 2 µM
Remark: another data set of the same source

SMILES	Bacterial Biotransformation
CCC1(c2ccc(N)cc2)CCC(=O)NC1=O (centres undefined) [AMINOGLUTETHIMIDE]	Compound NOT metabolized
COc1ccccc1N1CCN(CC(O)COc2cccc3ccccc23)CC1 (centres undefined) [NAFTOPIDIL]	Compound NOT metabolized

Assay: as §1, with “Z-020” for “Z-001”, “rabbit” for “mouse”, “ERS12561819” for “ERS12561801”
Conditions: 2 µM

SMILES	Bacterial Biotransformation
CCC1(c2ccc(N)cc2)CCC(=O)NC1=O (centres undefined) [AMINOGLUTETHIMIDE]	Compound NOT metabolized
CN(C)CCc1c[nH]c2ccc(Cn3cncn3)cc12.O=C(O)c1ccccc1 [RIZATRIPTAN BENZOATE]	Compound NOT metabolized
COc1ccccc1N1CCN(CC(O)COc2cccc3ccccc23)CC1 (centres undefined) [NAFTOPIDIL]	Compound NOT metabolized

Assay: as §1, with “Z-027” for “Z-001”, “to” for “to mouse gut”, “ERS12561826” for “ERS12561801”
Conditions: 2 µM

SMILES	Bacterial Biotransformation
CN(C)CCc1c[nH]c2ccc(Cn3cncn3)cc12.O=C(O)c1ccccc1 [RIZATRIPTAN BENZOATE]	Compound NOT metabolized
